BindingDB's records for doi:10.1021/jm00086a008 (Wellcome Research Laboratories, 1992)

Target: GAR transformylase (Sus scrofa)
Assay: In vitro inhibition of hog liver GAR transformylase with (6R)-10-formyl-FH4 as cofactor

Question: Which IC50 does the source give for Cc1cc(C(=O)NC(CCC(=O)O)C(=O)O)ccc1NCCCc1c(N)nc(N)[nH]c1=O (centres undefined) here?
Answer: 6.1 µM

Question: How did the IC50 turn out when Nc1nnc(C2CCN(c3ccc(C(=O)NC(CCC(=O)O)C(=O)O)cc3)C2=O)c(=O)[nH]1 (centres undefined) was run?
Answer: > 100 µM

Question: With Nc1nc[nH]c(=O)c1CCCNc1ccc(C(=O)NC(CCC(=O)O)C(=O)O)cc1 (centres undefined) as the compound, how does the IC50 read?
Answer: 52 µM

Question: With Nc1nc(N)c(CCCOc2ccc(C(=O)NC(CCC(=O)O)C(=O)O)cc2)c(=O)[nH]1 (centres undefined) as the compound, how does the IC50 read?
Answer: 5.3 µM

Question: Nc1nc(N)c(CCCNc2ccc(C(=O)NC(CCC(=O)O)C(=O)O)c(F)c2)c(=O)[nH]1 (centres undefined) was tested. Which IC50 did it give?
Answer: 3.1 µM

Question: Nc1nc(N)c(CCCCNc2ccc(C(=O)NC(CCC(=O)O)C(=O)O)cc2)c(=O)[nH]1 (centres undefined) was tested. Which IC50 did it give?
Answer: 18.2 µM

Question: How did the IC50 turn out when Nc1nc(N)c(CCCSc2ccc(C(=O)NC(CCC(=O)O)C(=O)O)cc2)c(=O)[nH]1 (centres undefined) was run?
Answer: 2.6 µM

Question: For Nc1nc(N)c(CCCNc2ccc(C(=O)NC(CCC(=O)O)C(=O)O)c(Cl)c2)c(=O)[nH]1 (centres undefined), which IC50 is on record?
Answer: 6.6 µM

Question: How did the IC50 turn out when Nc1nc(N)c(CCCNc2ccc(C(=O)NC(CCC(=O)O)C(=O)O)cc2F)c(=O)[nH]1 (centres undefined) was run?
Answer: 3.5 µM
